What was measured:
[1] = Bulk, granule and pellet density measurement; assay type: physicochemical
From the text: (§1) The increase in density of the granulated material relative to the non-granulated material results in improved flow characteristics which facilitate easier handling during manufacturing processes such as formulation. Bulk and granulated densities can be measured with a measuring cylinder. The values for the bulk (ρb) and tap (ρt) densities can be used to calculate index of compressibility (% Compressibility), which is indicative of the flow properties of the material. The % Compressibility can be calculated by the following formula: % Compressibility=[(ρt−−ρb)/ρt-]×100%. See, e.g., The theory and practice of industrial pharmacy, by L. Lachman, H. Lieberman, and J. Kanig, in Varghese Publishing House, 3rd Indian Edition, (Hind Rajasthan Bldng, Dadar Bombay 400 014), 1987, p. 184. Also, flowability of the material can be determined by Flodex analysis. The Flodex Test Apparatus is ideal for determining the intrinsic flowability of powders (which is recommended for quality control of powders). The Flodex instrument includes a complete set of index flow disks with opening of different diameter. A tested powder is allowed to flow through the opening. […] See, e.g., Composite Method to Quantify Powder Flow as a Screening Method in Early Tablet or Capsule Formulation Development, by Michael K. Taylor, Jeri Ginsburg, Anthony Hickey, and Ferdous Gheyas, in AAPS PharmSciTech, 2000, 1(3): article 18.

[2] = Flowability of the bulk material; assay type: physicochemical; conditions: 500 μm sieved bulk non-granulated material
From the text: as §1

[3] = Regional absorption studies; conditions: in vivo

- density of the bulk material ([1]; 500 μm sieved bulk non-granulated material): around 0.24 g/cm^3
- density of the natural form ([1]; natural (non-granulated) form): about 0.2 g/cm^3
- flowability [2]: very poor flowability
- regional absorption [3]: colonic absorption
Compound: CCO[C@@H]1OC(=O)C[C@@H]1NC(=O)[C@@H]1CCCN1C(=O)[C@@H](NC(=O)c1ccc(N)c(Cl)c1)C(C)(C)C [compound of Formula (I)]
